In US20040063763A1, “2-METHOXYIMINO-2(PYRIDINYLOXYMETHYL)PHENYL ACETAMIDES USEFUL AS FUNGICIDES” (priority 2003, published 2004):

Experiments:
Format in all cases: in vivo
[1] = system: Puccinia recondita; assay: Brown rust of wheat 1-day protectant whole plant test (PUCCRT 1DP); settings: 100 ppm spray to run off, wheat (cultivar Monon), inoculated after 24 hours
[2] = system: Erysiphe graminis; assay: Powdery Mildew of Wheat 1-day protectant whole plant test (ERYSGT 1DP); settings: 100 ppm spray to run off, wheat (cultivar Monon), inoculated after 24 hours
[3] = system: Phytophthora infestans; settings: 100 ppm spray to run off, tomatoes (cultivar Rutgers), inoculated after 24 hours

CNC(=O)/C(=N/OC)c1ccccc1COc1ncc(C2=NOCC2)cc1C [Compound 1, (2E)-2-[2˜({[5-(4,5-dihydroisoxazol-3-yl)-3-methylpyridin-2-yl]oxy}methyl)phenyl]-2-(methoxyimino)-N-methylethanamide]
>95%: PUCCRT 1DP percent control of the plant disease [1] | ERYSGT 1DP percent control of the plant disease [2] | PHYTIN 1DP percent control of the plant disease [3]
